Measured values published in ChEMBL document CHEMBL1201862, “PubChem BioAssay data set” (2004).
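Exposure lasted 48 hours, with cells grown in 96-well plates and compounds tested at five concentrations. GI50 = concentration required for 50% inhibition of growth.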 Active and inactive are the calls of the source. Rule as the data show it: active = GI50 up to about 1.1 µM and inactive = higher.

Key:
Assay in all cases: inhibition of tumour cell growth, NCI panel, 48 h
M19-MEL = test system: M19-MEL
RXF 631 = test system: RXF 631
XF498 = test system: XF498
KM-20L2 = test system: KM-20L2
DMS-114 = test system: DMS-114
MDA-MB-231 = test system: MDA-MB-231
Hs-578T = test system: Hs-578T
DU-145 = test system: DU-145
MCF7 = test system: MCF7

Cc1c(OC(C)C(=O)O)ccc2c(-c3ccccc3)cc(=O)oc12 (stereo not given)
GI50 (M19-MEL): > 100 µM (inactive) | GI50 (RXF 631): > 100 µM (inactive) | GI50 (XF498): > 100 µM (inactive) | GI50 (KM-20L2): > 100 µM (inactive) | GI50 (DMS-114): > 100 µM (inactive)

CC(C)C(=O)Cc1ccc2ccccc2n1
GI50 (MDA-MB-231): > 100 µM (inactive) | GI50 (Hs-578T): > 100 µM (inactive) | GI50 (DU-145): > 100 µM (inactive) | GI50 (MCF7): > 100 µM (inactive)

Nc1nc(O)c2[nH]cnc2[n+]1[O-]
GI50 (MDA-MB-231): > 100 µM (inactive) | GI50 (Hs-578T): > 100 µM (inactive) | GI50 (DU-145): > 100 µM (inactive) | GI50 (MCF7): 37.1 µM (inactive)

COc1cccc(C2c3cc4c(cc3OC(N3CCOCC3)C2C)OCO4)c1 (stereo not given)
GI50 (MDA-MB-231): 35.1 µM (inactive) | GI50 (Hs-578T): 13.9 µM (inactive) | GI50 (DU-145): 31.8 µM (inactive) | GI50 (MCF7): 6.61 µM (inactive)

COc1ccc(-c2cs/c(=N\c3ccccc3)n2CCCN(C)C)cc1
GI50 (MDA-MB-231): 44.2 µM (inactive)

Cc1cc(C)nc(NS(=O)(=O)c2ccc(NC(=O)c3cccc4c(Nc5ccc(S(=O)(=O)Nc6cc(C)on6)cc5)c5ccccc5nc34)cc2)n1
GI50 (M19-MEL): 26 µM (inactive) | GI50 (XF498): 21.1 µM (inactive) | GI50 (DMS-114): 20.7 µM (inactive)

O=C(Nc1ccc(Cl)c(Cl)c1)C(=O)C(C(=O)c1ccccc1F)C1OC(=O)c2ccccc21 (stereo not given)
GI50 (M19-MEL): 14.6 µM (inactive) | GI50 (XF498): 31.8 µM (inactive) | GI50 (KM-20L2): 23.6 µM (inactive) | GI50 (DMS-114): 18.7 µM (inactive)

CC1(Br)S(=O)(=O)OCCOS1(=O)=O
GI50 (M19-MEL): > 100 µM (inactive) | GI50 (XF498): > 100 µM (inactive) | GI50 (KM-20L2): > 100 µM (inactive) | GI50 (DMS-114): > 100 µM (inactive)

O=c1cc(O)c1=O
GI50 (MDA-MB-231): > 10 µM (inactive) | GI50 (Hs-578T): > 100 µM (inactive) | GI50 (DU-145): > 100 µM (inactive) | GI50 (MCF7): > 100 µM (inactive)

CSc1sc(C)cc1-c1nsc(=O)o1
GI50 (Hs-578T): > 100 µM (inactive) | GI50 (DU-145): > 100 µM (inactive) | GI50 (MCF7): > 100 µM (inactive)

COc1ccc2c(c1)OC(c1ccccc1O)CC2=O (stereo not given)
GI50 (XF498): 40.7 µM (inactive) | GI50 (KM-20L2): > 100 µM (inactive)

C=CCCON(C(=O)OC(C)(C)C)c1ccccc1
GI50 (MDA-MB-231): > 100 µM (inactive) | GI50 (Hs-578T): > 100 µM (inactive) | GI50 (DU-145): > 100 µM (inactive)

COc1ccc(NC(=O)C(=O)NNC(=O)c2sc(NNC(C)=O)nc2C)c([N+](=O)[O-])c1
GI50 (M19-MEL): > 100 µM (inactive) | GI50 (XF498): 71.3 µM (inactive) | GI50 (KM-20L2): > 100 µM (inactive) | GI50 (DMS-114): > 100 µM (inactive)

C#CCN(Cc1ccc2nc(-c3ccccc3)c(Cl)nc2c1)c1ccc(F)cc1
GI50 (MDA-MB-231): > 100 µM (inactive) | GI50 (Hs-578T): > 100 µM (inactive) | GI50 (DU-145): 95.7 µM (inactive) | GI50 (MCF7): 63.8 µM (inactive)

NCC(Cl)C(O)c1c[nH]c(N)n1 (stereo not given)
GI50 (M19-MEL): 2.52 µM (inactive) | GI50 (XF498): 2.45 µM (inactive) | GI50 (MCF7): 2.77 µM (inactive) | GI50 (KM-20L2): 0.596 µM (active) | GI50 (DMS-114): 1.54 µM (inactive)

COc1cc(C(C)c2cc3c(cc2OCCOCCOc2cc4c(cc2C(C)c2cc(OC)c(OC)c(OC)c2)OCO4)OCO3)cc(OC)c1OC (stereo not given)
GI50 (M19-MEL): > 10 µM (inactive) | GI50 (RXF 631): > 10 µM (inactive) | GI50 (XF498): > 10 µM (inactive) | GI50 (KM-20L2): > 10 µM (inactive) | GI50 (DMS-114): > 10 µM (inactive)

CCOC(=O)c1sc2nc(SC)nc(N3CCCCC3)c2c1N
GI50 (MDA-MB-231): > 100 µM (inactive) | GI50 (Hs-578T): > 100 µM (inactive) | GI50 (DU-145): > 100 µM (inactive)

O=C(NC(Cc1ccc(Cl)cc1)C(=O)O)c1ccc(I)cc1 (stereo not given)
GI50 (M19-MEL): > 100 µM (inactive) | GI50 (XF498): > 64.4 µM (inactive) | GI50 (MCF7): > 67 µM (inactive)

Brc1cc(CCOC2CCCCO2)c(-c2sccc2CCOC2CCCCO2)s1 (stereo not given)
GI50 (MDA-MB-231): > 100 µM (inactive) | GI50 (Hs-578T): 13.9 µM (inactive) | GI50 (DU-145): > 100 µM (inactive) | GI50 (MCF7): 20.3 µM (inactive)

CC1CC(c2ccccc2)=Nc2ccccc2S1 (stereo not given)
GI50 (M19-MEL): 97.3 µM (inactive) | GI50 (RXF 631): > 100 µM (inactive) | GI50 (XF498): > 100 µM (inactive) | GI50 (KM-20L2): > 100 µM (inactive) | GI50 (DMS-114): > 100 µM (inactive)

CCc1ncc(C(C)(O)c2ccccc2)n1Cc1ccccc1 (stereo not given)
GI50 (MDA-MB-231): 29.3 µM (inactive) | GI50 (Hs-578T): 33.4 µM (inactive) | GI50 (DU-145): > 100 µM (inactive) | GI50 (MCF7): 67.8 µM (inactive)

Cn1c(=O)c(Cl)c(N=[N+]=[N-])c2ccccc21
GI50 (MDA-MB-231): 60.5 µM (inactive) | GI50 (Hs-578T): > 100 µM (inactive) | GI50 (DU-145): > 100 µM (inactive) | GI50 (MCF7): 67.3 µM (inactive)

O=C(Cc1ccccc1)N/N=C(/c1nc2ccc([N+](=O)[O-])cc2nc1O)C(O)c1ccccc1Cl (stereo not given)
GI50 (M19-MEL): > 100 µM (inactive) | GI50 (XF498): > 100 µM (inactive)

COc1cc2c(cc1OC)C1(COc3cc(O)c(O)c(O)c3C1=O)C2 (stereo not given)
GI50 (MDA-MB-231): > 50 µM (inactive) | GI50 (Hs-578T): 16.4 µM (inactive) | GI50 (DU-145): > 50 µM (inactive) | GI50 (MCF7): 0.005 µM (active)

CCOC(=O)CCC1(C(=O)OCC)CCCCC1=O (stereo not given)
GI50 (M19-MEL): > 100 µM (inactive) | GI50 (XF498): > 100 µM (inactive) | GI50 (KM-20L2): > 100 µM (inactive) | GI50 (DMS-114): > 100 µM (inactive)

CC(O)(P(=O)(O)O)P(=O)(O)OCC(O)CN1CCOCC1 (stereo not given)
GI50 (MDA-MB-231): > 100 µM (inactive) | GI50 (Hs-578T): > 100 µM (inactive) | GI50 (DU-145): > 100 µM (inactive) | GI50 (MCF7): > 100 µM (inactive)

O=c1oc2ccc(-n3c(=O)c4ccccc4c4ccccc4c3=O)cc2c2ccccc12
GI50 (MDA-MB-231): > 100 µM (inactive) | GI50 (Hs-578T): 27 µM (inactive) | GI50 (MCF7): > 100 µM (inactive)

CCOC(=O)Cc1cc(OC)c(OC)cc1/C(Cl)=C(\CO)c1ccc(OC)c(OC)c1
GI50 (M19-MEL): > 100 µM (inactive) | GI50 (RXF 631): > 100 µM (inactive) | GI50 (XF498): 16.9 µM (inactive) | GI50 (KM-20L2): > 100 µM (inactive) | GI50 (DMS-114): 66.5 µM (inactive)

C=C(C)C1Cc2c(cc(O)c3c(=O)c4ccccc4n(C)c23)O1 (stereo not given)
GI50 (RXF 631): 37 µM (inactive) | GI50 (XF498): 23.8 µM (inactive) | GI50 (KM-20L2): > 100 µM (inactive) | GI50 (DMS-114): > 100 µM (inactive)

CN(C)CCCNC(=S)S
GI50 (MDA-MB-231): > 100 µM (inactive) | GI50 (Hs-578T): > 100 µM (inactive) | GI50 (DU-145): > 100 µM (inactive) | GI50 (MCF7): > 100 µM (inactive)

COC(=O)C12C3C4C1C1C2C3C41C(=O)O (stereo not given)
GI50 (M19-MEL): > 100 µM (inactive) | GI50 (RXF 631): > 100 µM (inactive) | GI50 (XF498): > 100 µM (inactive) | GI50 (KM-20L2): > 100 µM (inactive) | GI50 (DMS-114): > 100 µM (inactive)

COc1cc(C2c3cc4c(cc3[C@@H](Nc3cccc(CO)c3)C3COC(=O)[C@H]23)OCO4)cc(OC)c1O (stereo not given in full)
GI50 (M19-MEL): 0.871 µM (active) | GI50 (XF498): 0.154 µM (active) | GI50 (MCF7): 0.22 µM (active) | GI50 (KM-20L2): 0.766 µM (active) | GI50 (DMS-114): 0.427 µM (active)

Nc1ncnc2c1ncn2C1C(O)C=C(CO)C1O (stereo not given)
GI50 (M19-MEL): > 625 µM (inactive) | GI50 (XF498): < 0.0625 µM (active) | GI50 (MCF7): > 625 µM (inactive) | GI50 (KM-20L2): > 625 µM (inactive) | GI50 (DMS-114): > 625 µM (inactive)

COC(=O)N[C@H](C(=O)NC(OCc1ccccc1)C1COC(C)(C)O1)C(C)O[Si](C)(C)C(C)(C)C (stereo not given in full)
GI50 (Hs-578T): > 100 µM (inactive) | GI50 (DU-145): > 100 µM (inactive) | GI50 (MCF7): 27.6 µM (inactive)

OC1(c2ccc(Cl)cc2)c2ccc3ccccc3c2C2=N[C@H]3CCCC[C@@H]3N21 (stereo not given in full)
GI50 (MDA-MB-231): 18 µM (inactive) | GI50 (Hs-578T): 1.19 µM (inactive) | GI50 (DU-145): 3.39 µM (inactive) | GI50 (MCF7): 8.45 µM (inactive)

O=c1c2cc(I)ccc2nc(-c2cccs2)n1O
GI50 (DU-145): 27.7 µM (inactive) | GI50 (MCF7): 50 µM (inactive)

S=C=NCCc1ccccc1 [PHENETHYLISOTHIOCYANATE]
GI50 (M19-MEL): 0.753 µM (active) | GI50 (XF498): 2.39 µM (inactive) | GI50 (KM-20L2): 0.729 µM (active) | GI50 (DMS-114): 0.382 µM (active)
